Results as given in patent publication US8288386B2, “Melanocortin receptor agonists” (LG Life Sciences Ltd., priority 2008, dated 2012).

Target: T1, MC4R (Homo sapiens, UniProt P32245)
T1 construct: expressed in transfected cells; host or cells: HEK (Human Embryonic Kidney) permanent expression cell line HEK MC4R-Luc, with CRE-LUC reporter
Assay: MCR agonistic activity (luciferase assay / cAMP accumulation assay) in HEK MC4R-Luc cells
Type: cell-based
Settings: agonistic activity to MC4R; ranges given; read-out: EC50 value in the range
Protocol: Physiological activity of the compounds of the present invention was assessed by measuring agonistic activity as well as binding activity for melanocortin receptors (MCR) according to methods A and B explained as follows.
As one of the methods to measure MCR agonistic activity of the compound according to the present invention, the expression level of a marker gene (for example, luciferase) which increases proportionally according to the increase of cAMP content in the cell, was measured.
First, permanent expression HEK (Human Embryonic Kidney) cell lines (HEK MC1R-Luc, MC3R-Luc, MC4R-Luc or MC5R-Luc) expressing the MCR gene of each subtype together with luciferase gene (CRE-LUC) under the control of CRE (cAMP Response Element) were constructed. The above cell lines were incubated in an incubator with 6% CO2 atmosphere at 37° C. using selection medium, DMEM (Dulbecco's Modified Eagles Medium) containing 10% heat-inactivated fetal bovine serum (Gibco/BRL), 100 unit/ml, penicillin (Gibco/BRL), 100 unit/ml streptomycin (Gibco/BRL), and 200 μg/ml geneticin (G418) (Gibco/BRL). […] After allowing the treated cells to be at room temperature for 15 minutes, luminescence was measured for each well by using luminometer (Victor). The level of luminescence induced by the stepwise-diluted agonist was converted to relative % value to those by the treatment of 10 μM NDP-MSH. […]
As another method to measure MCR agonistic activity of the compound according to the present invention, an increase of cAMP amount in the cell was measured.
First, permanent expression HEK (Human Embryonic Kidney) cell lines (HEK MC1R-Luc, MC3R-Luc, MC4R-Luc or MC5R-Luc) expressing the MCR gene of each subtype were plated onto each well of 24-well culture plates for Luminometer (Costar) with a concentration of 2×10^5 cell in 1 ml culture medium for each well, and then incubated in an incubator with 6% CO2 atmosphere at 37° C. for 24 hours. […] Then, the cAMP amount in each cell was measured using Amersham cAMP assay Kit (TRK432). […]

T1 sequence (P32245 whole entry, species assumed): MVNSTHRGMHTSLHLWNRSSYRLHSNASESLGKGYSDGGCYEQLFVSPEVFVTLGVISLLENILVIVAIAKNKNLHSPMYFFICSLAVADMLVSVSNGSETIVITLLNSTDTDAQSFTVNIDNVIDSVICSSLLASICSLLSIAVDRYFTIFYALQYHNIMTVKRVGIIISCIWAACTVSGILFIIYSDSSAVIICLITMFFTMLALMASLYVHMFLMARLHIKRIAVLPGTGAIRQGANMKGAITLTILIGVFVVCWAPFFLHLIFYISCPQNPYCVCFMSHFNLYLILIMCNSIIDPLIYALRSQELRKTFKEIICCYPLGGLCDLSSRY

SMILES | EC50 [nM]
CN1CCN(C(=O)[C@@H]2C[C@H](N(C(=O)c3ccco3)c3ccc(F)cc3F)CN2C(=O)[C@@H]2CN(C(C)(C)C)C[C@H]2c2ccc(F)cc2F)CC1 [Example 84, N-{(3S,5S)-1-{[(3S,4R)-1-tert-butyl-4-(2,4-difluorophenyl)pyrrolidin-3-yl]carbonyl}-5-[(4-methylpiperazin-1-yl)carbonyl]pyrrolidin-3-yl}-N-(2,4-difluorophenyl)-2-furamide] | 100 to 1000
CC(C)C(=O)N(c1ccc(F)cc1F)[C@H]1C[C@@H](C(=O)N2CCN(C)CC2)N(C(=O)[C@@H]2CN(C(C)(C)C)C[C@H]2c2ccc(Cl)cc2)C1 [Example 79, N-{(3S,5S)-1-{[(3S,4R)-1-tert-butyl-4-(4-chlorophenyl)pyrrolidin-3-yl]carbonyl}-5-[(4-methylpiperazin-1-yl)carbonyl]pyrrolidin-3-yl}-N-(2,4-difluorophenyl)-2-methylpropanamide] | 10 to 100
CC(=O)N(C1CCC(F)(F)CC1)[C@H]1C[C@@H](C(=O)N2CCN(C)CC2)N(C(=O)[C@@H]2CN(C(C)(C)C)C[C@H]2c2ccc(Cl)cc2)C1 [Example 27, N-{(3S,5S)-1-{[(3S,4R)-1-tert-butyl-4-(4-chlorophenyl)pyrrolidin-3-yl]carbonyl}-5-[(4-methylpiperazin-1-yl)carbonyl]pyrrolidin-3-yl}-N-(4,4-difluorocyclohexyl)acetamide] | 100 to 1000
